Among the test systems are SK-MEL-28 melanoma; HOP-92 NSCLC; UACC-257 melanoma; OVCAR-5 ovarian; K-562 leukemia; MDA-MB-435; T-47D breast; HS 578T breast; U251 CNS; SK-OV-3 ovarian; HOP-62 NSCLC; ACHN renal; RPMI-8226 leukemia; MALME-3M melanoma; EKVX NSCLC; LOX IMVI melanoma.
What all share (assay): growth of human tumour cells (NCI), 48 h

Each structure is given as a SMILES string.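 Briefly, cells in 96-well plates were exposed to five compound concentrations for 48 h, and endpoints were estimated by linear interpolation. TGI: total growth inhibition.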 A value given as a limit tells only on which side of the number the result lay.

Consider `CC(=O)N1N=C(c2ccc3ccccc3c2O)CC1c1ccc(Cl)cc1Cl` (configuration not stated), for which the TGI in the experiment with SK-MEL-28 melanoma, with HOP-92 NSCLC, in the experiment on UACC-257 melanoma, with OVCAR-5 ovarian, with K-562 leukemia and in the experiment with MDA-MB-435 was over 100 µM each time. Besides, the TGI with T-47D breast, with HS 578T breast, in the experiment with U251 CNS, in the experiment on SK-OV-3 ovarian, in the experiment on HOP-62 NSCLC and in the experiment with ACHN renal was over 100 µM in each case. Moreover, the TGI with RPMI-8226 leukemia and in the experiment with MALME-3M melanoma was over 100 µM each time.
As to `O=C(Nc1ccc(Cl)cc1Cl)c1cc2nc3ccccc3c(=O)n2c2ccccc12`, the TGI with SK-MEL-28 melanoma, with EKVX NSCLC, with HOP-92 NSCLC, with UACC-257 melanoma, with OVCAR-5 ovarian and with K-562 leukemia was over 10 µM throughout. For the same molecule, the TGI in the experiment on MDA-MB-435, in the experiment on T-47D breast, with HS 578T breast, with U251 CNS, with SK-OV-3 ovarian and in the experiment on LOX IMVI melanoma was over 10 µM in each case. For the same molecule, the TGI in the experiment on HOP-62 NSCLC and with MALME-3M melanoma was over 10 µM in each case.
Turning to `CCn1c(SCC(=O)NNC(=S)Nc2ccc(Cl)cc2)nc2ccccc2c1=O`, the TGI in the experiment with SK-MEL-28 melanoma, with EKVX NSCLC, in the experiment on UACC-257 melanoma, in the experiment with OVCAR-5 ovarian, in the experiment with K-562 leukemia and with MDA-MB-435 was over 100 µM each time. For the same molecule, the TGI in the experiment on T-47D breast is 83 µM; with HS 578T breast, over 100 µM; in the experiment on U251 CNS, over 100 µM; in the experiment with SK-OV-3 ovarian, over 100 µM; in the experiment on LOX IMVI melanoma, over 100 µM; in the experiment on HOP-62 NSCLC, over 100 µM. Also, the TGI with ACHN renal is over 100 µM; in the experiment on RPMI-8226 leukemia it was 94.8 µM; in the experiment with MALME-3M melanoma it was over 100 µM.
For `Clc1cc2nnn(C3CCCCO3)c2cc1Cl` (configuration not stated), the TGI with EKVX NSCLC was 79.4 µM; with UACC-257 melanoma it was over 100 µM; in the experiment on OVCAR-5 ovarian it was over 100 µM; in the experiment with K-562 leukemia, over 100 µM; with MDA-MB-435, over 100 µM; with T-47D breast, over 100 µM. For the same molecule, the TGI with HS 578T breast, in the experiment on U251 CNS, in the experiment with SK-OV-3 ovarian, in the experiment with HOP-62 NSCLC, with ACHN renal and in the experiment with RPMI-8226 leukemia was over 100 µM throughout. The TGI in the experiment on MALME-3M melanoma was over 100 µM.
`CC12OC3(C(O)C1O)C(C(=O)O[C@H]3CO[Si](C)(C)C(C)(C)C)C2S(=O)(=O)c1ccccc1` (some centres not stated): the TGI in the experiment with SK-MEL-28 melanoma was over 100 µM; in the experiment with EKVX NSCLC, over 100 µM; in the experiment with HOP-92 NSCLC, over 100 µM; in the experiment with UACC-257 melanoma it was 69 µM; in the experiment with OVCAR-5 ovarian, over 100 µM; in the experiment with K-562 leukemia, over 100 µM. Moreover, the TGI is over 100 µM with MDA-MB-435; 79.3 µM with T-47D breast; over 100 µM with HS 578T breast; over 100 µM in the experiment on U251 CNS; over 100 µM in the experiment on SK-OV-3 ovarian; 46.8 µM with LOX IMVI melanoma. Further, the TGI is over 100 µM in the experiment on HOP-62 NSCLC, over 100 µM with ACHN renal and 70.8 µM with RPMI-8226 leukemia.
As for `c1csc(-c2cscc2-c2cccs2)c1`, the TGI in the experiment on SK-MEL-28 melanoma, in the experiment with EKVX NSCLC, in the experiment on HOP-92 NSCLC, with UACC-257 melanoma, in the experiment with OVCAR-5 ovarian and in the experiment on K-562 leukemia was over 100 µM throughout. Moreover, the TGI with MDA-MB-435, in the experiment with T-47D breast, in the experiment with HS 578T breast, in the experiment on U251 CNS, with SK-OV-3 ovarian and in the experiment on LOX IMVI melanoma was over 100 µM in each case. Further, the TGI in the experiment with HOP-62 NSCLC was 93.8 µM; in the experiment on ACHN renal it was over 100 µM; in the experiment on RPMI-8226 leukemia, over 100 µM.
For the molecule `CN1C(=O)CN=C(c2ccccc2F)c2cc(N=C=S)ccc21`, the TGI in the experiment on EKVX NSCLC, in the experiment with HOP-92 NSCLC, in the experiment on UACC-257 melanoma, in the experiment with OVCAR-5 ovarian, in the experiment on MDA-MB-435 and with T-47D breast was over 100 µM in each case. The TGI in the experiment on HS 578T breast, in the experiment on U251 CNS, in the experiment with SK-OV-3 ovarian, with LOX IMVI melanoma, with HOP-62 NSCLC and in the experiment on ACHN renal was over 100 µM throughout. In the experiment with MALME-3M melanoma, this molecule yielded a TGI of over 100 µM.
Regarding `O=C1CCCC(=O)N1n1c(Cc2ccc(Cl)cc2)n[nH]c1=O`, the TGI in the experiment on SK-MEL-28 melanoma, in the experiment with EKVX NSCLC, in the experiment with UACC-257 melanoma, with OVCAR-5 ovarian, in the experiment on K-562 leukemia and in the experiment with MDA-MB-435 was over 100 µM in each case. Also, the TGI with T-47D breast, in the experiment on HS 578T breast, with U251 CNS, in the experiment on SK-OV-3 ovarian, in the experiment on LOX IMVI melanoma and in the experiment on HOP-62 NSCLC was over 100 µM throughout. Moreover, the TGI with ACHN renal, with RPMI-8226 leukemia and with MALME-3M melanoma was over 100 µM each time.
`O=C1C=Cc2c1csc2Br`: the TGI in the experiment on SK-MEL-28 melanoma is over 100 µM; in the experiment with EKVX NSCLC it was over 100 µM; with UACC-257 melanoma it was over 100 µM; in the experiment with OVCAR-5 ovarian, over 100 µM; with K-562 leukemia, 97.7 µM; in the experiment with MDA-MB-435, over 100 µM. Also, the TGI is over 100 µM in the experiment with T-47D breast; over 100 µM with HS 578T breast; over 100 µM in the experiment on U251 CNS; over 100 µM in the experiment on SK-OV-3 ovarian; 60.2 µM with LOX IMVI melanoma; over 100 µM in the experiment with HOP-62 NSCLC. The values for the TGI in the experiment on ACHN renal and in the experiment on MALME-3M melanoma were 86.5 µM and over 100 µM, respectively.
With `CCNC(=S)Nc1c(C#N)c2n(c1C(=O)OCC)CCCCC2`, the TGI in the experiment on SK-MEL-28 melanoma, in the experiment on EKVX NSCLC, with HOP-92 NSCLC, in the experiment on UACC-257 melanoma, with K-562 leukemia and with MDA-MB-435 was over 100 µM throughout. Moreover, the TGI in the experiment on T-47D breast, in the experiment on HS 578T breast, with U251 CNS, with SK-OV-3 ovarian, with LOX IMVI melanoma and with HOP-62 NSCLC was over 100 µM in each case. Also, the TGI in the experiment with ACHN renal and in the experiment on RPMI-8226 leukemia was over 100 µM throughout.

(Values after PubChem BioAssay (NCI).)
